The values below come from patent US9650379B2 (CHONG KUN DANG PHARMACEUTICAL CORP., priority 2013, dated 2017).

One assay deals with T1, HDAC1 (Homo sapiens, UniProt Q13547).
T1 construct: purchased Enzolifesciences BML-AK511
Kind of assay: Inhibition of HDAC1 activity (HDAC1 fluorimetric drug discovery assay kit). It counts as biochemical. Particulars: test concentrations 100, 1000 and 10000 nM; 37° C., 60 minutes. In short, it runs like this: (§1)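 HDAC1 tested with the kit assay mixture at 100, 1000 and 10000 nM compound; recombinant human HDAC6 at 0.1, 1, 10, 100 and 1000 nM. Reaction ran 60 min at 37° C, then developer was added for 30 min at 37° C and fluorescence quantified.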

The target of the next assay is T2, HDAC6 human recombinant (Homo sapiens, UniProt Q9UBN7).
T2 construct: purchased Calbiochem 382180
T2 sequence (Q9UBN7 1-1215): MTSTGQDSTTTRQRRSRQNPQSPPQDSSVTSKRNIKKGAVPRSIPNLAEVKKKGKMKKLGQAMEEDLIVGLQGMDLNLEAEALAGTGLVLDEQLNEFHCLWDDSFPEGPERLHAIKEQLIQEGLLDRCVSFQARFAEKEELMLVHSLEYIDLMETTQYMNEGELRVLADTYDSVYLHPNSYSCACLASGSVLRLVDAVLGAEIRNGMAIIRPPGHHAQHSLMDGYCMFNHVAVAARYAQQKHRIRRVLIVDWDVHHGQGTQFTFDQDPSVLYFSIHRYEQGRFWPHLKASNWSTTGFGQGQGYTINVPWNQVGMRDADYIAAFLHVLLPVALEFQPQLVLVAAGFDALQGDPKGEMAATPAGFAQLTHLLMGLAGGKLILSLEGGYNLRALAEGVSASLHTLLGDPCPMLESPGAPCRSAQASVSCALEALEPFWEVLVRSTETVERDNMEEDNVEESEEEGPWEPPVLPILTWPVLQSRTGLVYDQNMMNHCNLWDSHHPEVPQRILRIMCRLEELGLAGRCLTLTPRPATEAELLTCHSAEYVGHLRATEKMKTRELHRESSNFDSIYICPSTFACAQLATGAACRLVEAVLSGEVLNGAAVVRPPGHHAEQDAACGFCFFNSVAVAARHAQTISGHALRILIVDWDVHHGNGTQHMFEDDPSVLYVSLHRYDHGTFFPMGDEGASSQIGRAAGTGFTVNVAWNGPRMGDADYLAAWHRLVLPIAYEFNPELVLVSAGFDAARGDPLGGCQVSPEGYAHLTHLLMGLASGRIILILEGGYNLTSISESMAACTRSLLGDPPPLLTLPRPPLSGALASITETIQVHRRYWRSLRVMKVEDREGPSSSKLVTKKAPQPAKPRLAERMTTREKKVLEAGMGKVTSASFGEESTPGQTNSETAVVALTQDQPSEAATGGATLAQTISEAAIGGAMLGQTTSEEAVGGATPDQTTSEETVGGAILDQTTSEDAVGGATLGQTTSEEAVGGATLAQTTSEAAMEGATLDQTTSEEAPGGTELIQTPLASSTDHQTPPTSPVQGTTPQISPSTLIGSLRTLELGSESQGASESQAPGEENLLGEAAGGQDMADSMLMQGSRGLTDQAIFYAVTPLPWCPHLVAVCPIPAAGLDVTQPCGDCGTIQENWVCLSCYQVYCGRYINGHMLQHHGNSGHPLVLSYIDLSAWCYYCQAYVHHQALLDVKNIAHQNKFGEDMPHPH
The experiment in a line: Inhibition of HDAC6 activity (fluorimetric assay). It counts as biochemical. The following applies: test concentrations 0.1, 1, 10, 100 and 1000 nM; 37° C., 60 minutes. The procedure, abridged:
as §1

For orientation: IC50 means the concentration that gives 50% inhibition.

T1 sequence (Q13547 whole entry): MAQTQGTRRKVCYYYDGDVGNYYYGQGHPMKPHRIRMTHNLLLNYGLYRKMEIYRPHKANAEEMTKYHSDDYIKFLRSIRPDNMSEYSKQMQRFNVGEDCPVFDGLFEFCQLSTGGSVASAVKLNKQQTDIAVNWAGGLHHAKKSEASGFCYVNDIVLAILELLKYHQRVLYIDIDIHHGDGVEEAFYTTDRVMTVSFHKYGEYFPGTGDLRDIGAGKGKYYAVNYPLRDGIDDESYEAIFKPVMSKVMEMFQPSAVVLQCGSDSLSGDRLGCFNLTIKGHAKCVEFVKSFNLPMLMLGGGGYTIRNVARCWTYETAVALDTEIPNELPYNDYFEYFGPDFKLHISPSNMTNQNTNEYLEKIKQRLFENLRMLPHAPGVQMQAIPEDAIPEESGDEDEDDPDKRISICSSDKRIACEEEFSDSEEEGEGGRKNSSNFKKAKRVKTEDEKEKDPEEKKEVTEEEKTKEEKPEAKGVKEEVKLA

Consider `O=C(NO)c1ccc(Cn2ccc3c(C4CCN(Cc5ccccc5F)CC4)ccnc32)cc1` [Compound 869, 4-((4-(1-(2-fluorobenzyl)piperidin-4-yl)-1H-pyrrolo[2,3-b]pyridin-1-yl)methyl)-N-hydroxybenzamide], for which the half-inhibitory concentration (IC50) against HDAC1 worked out at 350 nM; on HDAC6 human recombinant it was 26.3 nM.

For the compound `O=C(NO)c1ccc(Cn2ccc3c(N4CCN(Cc5ccccc5F)CC4)ccnc32)cc1` [Compound 847, 4-((4-(4-(2-fluorobenzyl)piperazin-1-yl)-1H-pyrrolo[2,3-b]pyridin-1-yl)methyl)-N-hydroxybenzamide], the IC50 is 600 nM against HDAC1 and 5.6 nM on HDAC6 human recombinant.

In the case of `O=C(NO)c1ccc(Cn2ccc3c(-c4ccc(CN5CCOCC5)cc4)ccnc32)cc1` [Compound 762, N-hydroxy-4-((4-(4-(morpholinomethyl)phenyl)-1H-pyrrolo[2,3-b]pyridin-1-yl)methyl)benzamide], the IC50 came to 780 nM at HDAC1 and 10 nM on HDAC6 human recombinant.

For `CN1CCN(Cc2cccc(CN3CCC(c4ccnc5c4ccn5Cc4ccc(C(=O)NO)cc4)CC3)c2)CC1` [Compound 986, N-hydroxy-4-((4-(1-(3-((4-methylpiperazin-1-yl)methyl)benzyl)piperidin-4-yl)-1H-pyrrolo[2,3-b]pyridin-1-yl)methyl)benzamide], the IC50 against HDAC1 was determined as 420 nM; on HDAC6 human recombinant, 11.5 nM.

For `O=C(NO)c1ccc(Cn2ccc3c(-c4cccc(CN5CCOCC5)c4)ccnc32)cc1` [Compound 761, N-hydroxy-4-((4-(3-(morpholinomethyl)phenyl)-1H-pyrrolo[2,3-b]pyridin-1-yl)methyl)benzamide], the IC50 came out at 430 nM at HDAC1 and 9 nM at HDAC6 human recombinant.

With `C[C@@H]1CN(c2cnc3c(ccn3Cc3ccc(C(=O)NO)cc3)c2)C[C@H](C)N1Cc1ncccn1` [Compound 1005, 4-((5-((3S,5R)-3,5-dimethyl-4-(pyrimidin-2-ylmethyl)-1-yl)-1H-pyrrolo[2,3-b]pyridin-1-yl)methyl)-N-hydroxybenzamide], the IC50 at HDAC1 worked out at 750 nM; on HDAC6 human recombinant, 5.5 nM.

Regarding `CC(C)(C)OC(=O)N1CC=C(c2ccc3c(ccn3Cc3ccc(C(=O)NO)cc3)n2)CC1` [Compound 758, tert-butyl 4-(1-(4-(hydroxycarbamoyl)benzyl)-1H-pyrrolo[3,2-b]pyridin-5-yl)-5,6-dihydropyridine-1(2H)-carboxylate], the half-inhibitory concentration (IC50) against HDAC1 was determined as 1630 nM; at HDAC6 human recombinant it was 8 nM.

As for `CC(C)(O)CN1C2CCC1CC(c1ccnc3c1ccn3Cc1ccc(C(=O)NO)cc1)C2` (stereo not shown) [Compound 930, N-hydroxy-4-((4-(8-(2-hydroxy-2-methylpropyl)-8-aza-bicyclo[3.2.1]octan-3-yl)-1H-pyrrolo[2,3-b]pyridin-1-yl)methyl)benzamide], the IC50 on HDAC1 is 250 nM; on HDAC6 human recombinant it was 1.7 nM.

`CC(C)(C)OC(=O)N1CC=C(c2cnc3c(ccn3Cc3ccc(C(=O)NO)cc3)c2)CC1` [Compound 692, tert-butyl 4-(1-(4-(hydroxycarbamoyl)benzyl)-1H-pyrrolo[2,3-b]pyridin-5-yl)-5,6-dihydropyridine-1(2H)-carboxylate]: the IC50 is 3430 nM against HDAC1 and 8 nM at HDAC6 human recombinant.

On to `O=C(NO)c1ccc(Cn2ccc3cc(C4=CCC(F)(F)CC4)cnc32)cc1` [Compound 650, 4-((5-(4,4-difluorocyclohex-1-en-1-yl)-1H-pyrrolo[2,3-b]pyridin-1-yl)methyl)-N-hydroxybenzamide], for which the half-inhibitory concentration (IC50) against HDAC1 is 2300 nM; on HDAC6 human recombinant, 14 nM.

As for `CC(C)(C)OC(=O)N1CC=C(c2cnc3ccn(Cc4ccc(C(=O)NO)cc4)c3c2)CC1` [Compound 786, tert-butyl 4-(1-(4-(hydroxycarbamoyl)benzyl)-1H-pyrrolo[3,2-b]pyridin-6-yl)-5,6-dihydropyridine-1(2H)-carboxylate], the IC50 amounted to 620 nM against HDAC1 and 5.7 nM at HDAC6 human recombinant.

Turning to `O=C(NO)c1ccc(Cn2ccc3c(C4CCN(Cc5cccnc5)CC4)ccnc32)cc1` [Compound 1014, N-hydroxy-4-((4-(1-(pyridin-3-ylmethyl)piperidin-4-yl)-1H-pyrrolo[2,3-b]pyridin-1-yl)methyl)benzamide], the IC50 against HDAC1 amounted to 670 nM; at HDAC6 human recombinant, 8.5 nM.

As to `O=C(NO)c1ccc(Cn2ccc3cc(C4CCN(Cc5cncnc5)CC4)cnc32)cc1` [Compound 880, N-hydroxy-4-((5-(1-(pyrimidin-5-ylmethyl)piperidin-4-yl)-1H-pyrrolo[2,3-b]pyridin-1-yl)methyl)benzamide], the IC50 at HDAC1 turned out to be 770 nM; at HDAC6 human recombinant, 6 nM.

For `CC(C)(C)OC(=O)N1CCC(c2cnc3c(ccn3Cc3ccc(C(=O)NO)cc3)c2)CC1` [Compound 694, tert-butyl 4-(1-(4-(hydroxycarbamoyl)benzyl)-1H-pyrrolo[2,3-b]pyridin-5-yl)piperidine-1-carboxylate], the IC50 against HDAC1 came to 5170 nM; on HDAC6 human recombinant, 28 nM.

In the case of `O=C(NO)c1ccc(Cn2ccc3cc(N4CCN(Cc5ccc(F)cc5)CC4)cnc32)cc1` [Compound 852, 4-((5-(4-(4-fluorobenzyl)piperazin-1-yl)-1H-pyrrolo[2,3-b]pyridin-1-yl)methyl)-N-hydroxybenzamide], the IC50 against HDAC1 was found to be 2210 nM; at HDAC6 human recombinant it was 11.5 nM.

Consider `O=C(NO)c1ccc(Cn2ccc3c(C4CCN(C(=O)c5cccc(F)c5)CC4)ccnc32)cc1` [Compound 860, 4-((4-(1-(3-fluorobenzoyl)piperidin-4-yl)-1H-pyrrolo[2,3-b]pyridin-1-yl)methyl)-N-hydroxybenzamide], for which the IC50 at HDAC1 amounted to 120 nM; on HDAC6 human recombinant, 2.5 nM.

As to `O=C(NO)c1ccc(Cn2ccc3cc(C4=CCNCC4)cnc32)cc1` [Compound 693, N-hydroxy-4-((5-(1,2,3,6-tetrahydropyridin-4-yl)-1H-pyrrolo[2,3-b]pyridin-1-yl)methyl)benzamide], the half-inhibitory concentration (IC50) against HDAC1 was found to be 520 nM; on HDAC6 human recombinant it was 3 nM.

For the compound `CCN1CCN(c2ccnc3c2ccn3Cc2ccc(C(=O)NO)cc2)CC1` [Compound 223, 4-((4-(4-ethylpiperazin-1-yl)-1H-pyrrolo[2,3-b]pyridin-1-yl)methyl)-N-hydroxybenzamide], the IC50 against HDAC1 turned out to be 380 nM; at HDAC6 human recombinant, 7 nM.

Regarding `O=C(NO)c1ccc(Cn2ccc3cc(N4CCC5(CC4)CN(Cc4cccnc4)C5)cnc32)cc1` [Compound 957, N-hydroxy-4-((5-(2-(pyridin-3-ylmethyl)-2,7-diazaspiro[3.5]nonan-7-yl)-1H-pyrrolo[2,3-b]pyridin-1-yl)methyl)benzamide], the half-maximal inhibitory concentration (IC50) amounted to 650 nM against HDAC1 and 1.6 nM at HDAC6 human recombinant.

Turning to `CC(C)(O)CN1CC=C(c2cnc3c(ccn3Cc3ccc(C(=O)NO)cc3)c2)CC1` [Compound 686, N-hydroxy-4-((5-(1-(2-hydroxy-2-methylpropyl)-1,2,3,6-tetrahydropyridin-4-yl)-1H-pyrrolo[2,3-b]pyridin-1-yl)methyl)benzamide], the half-inhibitory concentration (IC50) against HDAC1 amounted to 2740 nM; at HDAC6 human recombinant, 39 nM.

`O=C(NO)c1ccc(Cn2ccc3cc(C4CCN(Cc5ccc(-c6ccco6)cc5)CC4)cnc32)cc1` [Compound 875, 4-((5-(1-(4-(furan-2-yl)benzyl)piperidin-4-yl)-1H-pyrrolo[2,3-b]pyridin-1-yl)methyl)-N-hydroxybenzamide]: the IC50 against HDAC1 was found to be 2320 nM; on HDAC6 human recombinant, 32.4 nM.

In the case of `O=C(O)CCN1CCC(c2ccnc3c2ccn3Cc2ccc(C(=O)NO)cc2)CC1` [Compound 927, 3-(4-(1-(4-(hydroxycarbamoyl)benzyl)-1H-pyrrolo[2,3-b]pyridin-4-yl)piperidin-1-yl)propionic acid], the IC50 was found to be 830 nM at HDAC1 and 4.5 nM at HDAC6 human recombinant.

With `O=C(NO)c1ccc(Cn2ccc3cc(-c4ccc5cccnc5c4)cnc32)cc1` [Compound 688, N-hydroxy-4-((5-(quinolin-7-yl)-1H-pyrrolo[2,3-b]pyridin-1-yl)methyl)benzamide], the IC50 at HDAC1 came out at 4610 nM; at HDAC6 human recombinant, 22 nM.
